Source: paper PMC8722715 (Frontiers in Cell and Developmental Biology, 2021)

How the values were obtained:
[1] = target: T1, hNaV1.6 channel (Homo sapiens, UniProt Q9UQD0); experiment: Automated patch-clamp block of hNaV1.6 peak Na+ current in HEK-293 cells; assay type: cell-based; conditions: for hNaV1.6 IC50 versus WT: ratio of analogue mean IC50 to HwTx-IV WT mean IC50 on hNaV1.6; for IC50: HEK-293 cells stably expressing hNaV1.6, SyncroPatch 384 PE whole-cell, holding -100 mV, 0 mV test pulse 50 ms every 5 s, room temperature 18-22°C, 0.3% BSA, steady state or end of 15-min application, mean, S.E.M. and n cells
T1 construct: expressed in transfected cells
T1 sequence (Q9UQD0 whole entry): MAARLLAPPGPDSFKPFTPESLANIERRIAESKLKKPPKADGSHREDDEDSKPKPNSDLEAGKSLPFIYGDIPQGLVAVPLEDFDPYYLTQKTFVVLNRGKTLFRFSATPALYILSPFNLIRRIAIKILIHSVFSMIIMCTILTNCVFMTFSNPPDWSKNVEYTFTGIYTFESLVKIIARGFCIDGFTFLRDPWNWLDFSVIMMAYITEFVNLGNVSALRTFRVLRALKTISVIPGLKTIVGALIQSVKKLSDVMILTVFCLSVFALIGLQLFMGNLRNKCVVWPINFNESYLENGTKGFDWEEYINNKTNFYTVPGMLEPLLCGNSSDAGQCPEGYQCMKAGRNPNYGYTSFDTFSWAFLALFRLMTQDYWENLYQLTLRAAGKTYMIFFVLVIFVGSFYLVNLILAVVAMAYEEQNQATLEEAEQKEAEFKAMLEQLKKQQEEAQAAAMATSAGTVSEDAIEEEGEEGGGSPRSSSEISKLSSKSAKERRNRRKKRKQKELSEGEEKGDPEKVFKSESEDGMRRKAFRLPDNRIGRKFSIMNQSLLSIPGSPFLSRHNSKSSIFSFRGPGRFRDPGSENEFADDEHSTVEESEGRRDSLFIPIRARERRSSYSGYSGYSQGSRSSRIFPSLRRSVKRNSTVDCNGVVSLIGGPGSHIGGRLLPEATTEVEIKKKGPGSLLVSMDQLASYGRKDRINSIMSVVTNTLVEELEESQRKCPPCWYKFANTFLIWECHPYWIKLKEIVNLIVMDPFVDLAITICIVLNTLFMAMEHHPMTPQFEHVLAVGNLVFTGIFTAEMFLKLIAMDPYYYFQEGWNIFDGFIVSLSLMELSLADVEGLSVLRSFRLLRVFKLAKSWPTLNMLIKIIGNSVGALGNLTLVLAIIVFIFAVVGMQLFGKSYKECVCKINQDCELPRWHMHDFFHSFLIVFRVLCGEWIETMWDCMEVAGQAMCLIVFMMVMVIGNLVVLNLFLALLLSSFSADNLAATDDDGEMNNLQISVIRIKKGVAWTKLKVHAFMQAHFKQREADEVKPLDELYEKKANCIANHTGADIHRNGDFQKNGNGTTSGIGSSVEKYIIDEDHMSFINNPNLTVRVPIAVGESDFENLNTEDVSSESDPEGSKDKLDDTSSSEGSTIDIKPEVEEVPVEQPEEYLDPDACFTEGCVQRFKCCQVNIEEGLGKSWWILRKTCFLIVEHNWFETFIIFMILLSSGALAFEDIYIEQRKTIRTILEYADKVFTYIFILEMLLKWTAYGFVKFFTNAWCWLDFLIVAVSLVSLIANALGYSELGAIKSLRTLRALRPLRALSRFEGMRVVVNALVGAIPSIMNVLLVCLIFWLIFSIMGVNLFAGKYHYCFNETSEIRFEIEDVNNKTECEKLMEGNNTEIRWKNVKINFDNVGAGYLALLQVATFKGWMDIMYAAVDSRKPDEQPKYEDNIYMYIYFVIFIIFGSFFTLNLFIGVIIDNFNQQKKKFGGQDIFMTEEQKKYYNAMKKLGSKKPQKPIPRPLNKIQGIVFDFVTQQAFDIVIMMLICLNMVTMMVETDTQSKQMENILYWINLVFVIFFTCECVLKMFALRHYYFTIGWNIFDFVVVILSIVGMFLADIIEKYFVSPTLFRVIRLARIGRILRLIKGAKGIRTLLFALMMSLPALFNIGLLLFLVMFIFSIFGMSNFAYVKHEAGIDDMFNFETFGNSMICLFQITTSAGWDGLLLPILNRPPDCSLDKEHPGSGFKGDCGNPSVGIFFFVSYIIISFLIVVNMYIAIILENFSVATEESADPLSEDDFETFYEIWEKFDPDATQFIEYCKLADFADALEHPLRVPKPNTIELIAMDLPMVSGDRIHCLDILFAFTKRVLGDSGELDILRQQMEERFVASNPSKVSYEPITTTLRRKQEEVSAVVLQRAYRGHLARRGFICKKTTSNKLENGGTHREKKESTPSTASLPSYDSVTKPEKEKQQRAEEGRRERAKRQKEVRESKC
Method: (§1) CHO cells stably expressing the hNaV1.7 channel subtype were cultured in Dulbecco’s Modified Eagle’s Medium F-12 (DMEM/F12) supplemented with 10% fetal bovine serum, 2 mM glutamine, 200 μg/ml hygromycine B, 10 U/ml penicillin and 10 μg/ml streptomycin (Gibco, Grand Island, NY). HEK-293 cells stably expressing the hNaV1.6 channel subtype were cultured in Dulbecco’s Modified Eagle’s Medium (DMEM) supplemented with 10% fetal calf serum, 1 mM pyruvic acid, 4.5 g/L glucose, 2 mM glutamine, 800 μg/ml G418, 10 U/ml penicillin and 10 μg/ml streptomycin (Gibco, Grand Island, NY). All cell lines were incubated at 37°C in a 5% CO2 atmosphere. For electrophysiological recordings, cells were detached with trypsin, and floating single cells were diluted (∼300,000 cells/ml) in an extracellular solution containing (in mM): 140 NaCl, 4 KCl, 2 CaCl2, 1 MgCl2, 5 glucose and 10 HEPES (pH 7.4, osmolarity 298 mOsm), that was used throughout the experiments.
(§2) HwTx-IV analogues were investigated on CHO cells expressing hNav1.7 channel and HEK-293 cells expressing hNaV1.6 channel using the automated patch-clamp system from Nanion (SyncroPatch 384 PE; München, Germany). Chips with single-hole and high-resistance (∼6–7 MΩ) were used for both cell lines. Voltage pulses and whole-cell recordings were achieved using the PatchControl384 v1.5.2 software (Nanion) and the Biomek v1.0 interface (Beckman Coulter). Prior to recordings, dissociated cells were shaken at 200 RPM in a cell hotel reservoir at 10°C. After cell catching, sealing, whole-cell formation, liquid application, recording, and data acquisition were all performed sequentially and automatically. The intracellular solution contained (in mM): 110 CsF, 10 CsCl, 10 NaCl, 1 MgCl2, 1 CaCl2, 10 EGTA and 10 HEPES (pH 7.2, osmolarity 280 mOsm), and the extracellular solution was as described above. Whole-cell experiments were done at −100 mV holding potential and at room temperature (18–22°C), while currents triggered at either −10 or 0 mV test potential were sampled at 20 kHz. Stimulation frequency was set at 0.2 Hz. Each HwTx-IV analogue was prepared at various concentrations in the extracellular solution, itself supplemented with 0.3% of bovine serum albumin (BSA), also added in the control solution. The peptides were distributed in 384-well microplates according to the number of compounds to be tested (generally four), the concentration range defined from the IC50 of wild-type HwTx-IV, and the number of cells desired for each experimental condition. Compound solutions were diluted 3 times in the patch-clamp recording well by adding 30–60 μl external solution, to reach the final reported concentration and the test volume of 90 μl. For establishing dose-response curves, the compounds were tested at a test potential of either −10 or 0 mV for 50 ms with a pulse every 5 s. Percentages of current inhibition were measured at steady-state of blockage or at the end of a 15-min application time.

[2] = target: T2, hNaV1.7 channel (Homo sapiens, UniProt Q15858); experiment: Automated patch-clamp block of hNaV1.7 peak Na+ current in CHO cells; assay type: cell-based; conditions: for hNaV1.7/hNaV1.6 selectivity ratio: inverse ratio of the mean IC50 values on hNaV1.7 (CHO) and hNaV1.6 (HEK-293) of Table 1; for hNaV1.7 IC50 versus WT: ratio of analogue mean IC50 to HwTx-IV WT mean IC50 on hNaV1.7; for IC50: CHO cells stably expressing hNaV1.7, SyncroPatch 384 PE whole-cell, holding -100 mV, -10 mV test pulse 50 ms every 5 s, room temperature 18-22°C, 0.3% BSA, steady state or end of 15-min application, mean, S.E.M. and n cells
T2 construct: expressed in transfected cells
T2 sequence (Q15858 whole entry): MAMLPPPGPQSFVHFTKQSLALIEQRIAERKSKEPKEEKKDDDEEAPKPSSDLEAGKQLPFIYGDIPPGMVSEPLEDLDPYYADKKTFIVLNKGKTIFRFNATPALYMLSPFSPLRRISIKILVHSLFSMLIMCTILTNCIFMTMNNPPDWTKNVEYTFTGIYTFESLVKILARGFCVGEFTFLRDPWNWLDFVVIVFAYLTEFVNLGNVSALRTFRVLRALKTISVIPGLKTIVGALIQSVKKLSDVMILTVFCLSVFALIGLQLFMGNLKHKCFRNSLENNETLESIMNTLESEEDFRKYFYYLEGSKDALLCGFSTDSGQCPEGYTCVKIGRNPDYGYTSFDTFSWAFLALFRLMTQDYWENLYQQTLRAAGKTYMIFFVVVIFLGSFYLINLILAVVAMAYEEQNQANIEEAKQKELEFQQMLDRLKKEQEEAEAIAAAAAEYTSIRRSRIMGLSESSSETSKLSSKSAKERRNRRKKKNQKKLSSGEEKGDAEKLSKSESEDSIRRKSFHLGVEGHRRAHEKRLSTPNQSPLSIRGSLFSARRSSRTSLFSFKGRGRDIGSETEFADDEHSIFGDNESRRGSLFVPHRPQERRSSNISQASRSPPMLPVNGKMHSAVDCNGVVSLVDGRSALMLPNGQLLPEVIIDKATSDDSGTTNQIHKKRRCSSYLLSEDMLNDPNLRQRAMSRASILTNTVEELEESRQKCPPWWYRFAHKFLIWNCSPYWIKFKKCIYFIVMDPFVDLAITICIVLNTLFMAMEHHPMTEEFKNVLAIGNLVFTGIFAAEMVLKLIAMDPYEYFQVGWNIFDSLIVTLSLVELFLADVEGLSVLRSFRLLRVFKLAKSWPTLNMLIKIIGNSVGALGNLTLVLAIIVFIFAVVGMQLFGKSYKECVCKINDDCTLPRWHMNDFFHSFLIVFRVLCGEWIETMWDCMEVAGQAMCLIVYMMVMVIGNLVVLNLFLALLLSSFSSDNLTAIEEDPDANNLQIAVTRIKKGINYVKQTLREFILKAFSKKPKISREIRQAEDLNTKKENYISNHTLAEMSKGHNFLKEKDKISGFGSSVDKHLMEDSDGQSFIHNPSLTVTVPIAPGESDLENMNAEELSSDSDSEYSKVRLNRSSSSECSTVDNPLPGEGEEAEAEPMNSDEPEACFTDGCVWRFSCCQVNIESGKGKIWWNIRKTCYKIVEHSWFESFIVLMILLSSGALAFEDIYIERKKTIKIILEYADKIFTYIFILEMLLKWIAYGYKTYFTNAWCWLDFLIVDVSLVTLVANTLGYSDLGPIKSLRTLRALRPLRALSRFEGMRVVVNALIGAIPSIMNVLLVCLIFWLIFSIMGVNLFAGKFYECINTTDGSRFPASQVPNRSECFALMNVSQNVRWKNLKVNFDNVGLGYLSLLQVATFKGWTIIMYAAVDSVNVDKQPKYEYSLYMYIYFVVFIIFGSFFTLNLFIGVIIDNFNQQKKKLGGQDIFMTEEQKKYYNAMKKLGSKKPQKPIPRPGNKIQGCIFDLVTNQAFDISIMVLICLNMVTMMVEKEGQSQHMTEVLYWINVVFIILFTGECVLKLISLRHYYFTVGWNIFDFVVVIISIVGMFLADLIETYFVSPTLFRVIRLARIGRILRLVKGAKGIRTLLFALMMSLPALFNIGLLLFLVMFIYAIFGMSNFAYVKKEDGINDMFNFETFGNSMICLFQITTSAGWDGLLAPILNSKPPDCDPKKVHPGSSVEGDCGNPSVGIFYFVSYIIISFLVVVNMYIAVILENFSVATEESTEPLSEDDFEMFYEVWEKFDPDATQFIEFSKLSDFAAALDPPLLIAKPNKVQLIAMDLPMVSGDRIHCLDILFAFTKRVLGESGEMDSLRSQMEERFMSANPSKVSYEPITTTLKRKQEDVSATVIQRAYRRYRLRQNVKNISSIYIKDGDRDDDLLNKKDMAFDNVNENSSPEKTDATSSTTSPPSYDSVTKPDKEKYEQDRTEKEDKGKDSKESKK
Method: as §1
as §2, with “The peptides were distributed in 384-well microplates according to the number of compounds to be tested (generally four), the concentration range defined from the IC50 of wild-type HwTx-IV, and the number of cells desired for each experimental condition.” left out

Row | SMILES | hNaV1.6 IC50 versus WT [1] | hNaV1.6 IC50 versus WT ([1]; listed as HwTx-IV E^4G) | hNaV1.6 IC50 versus WT ([1]; listed as HwTx-IV E^4K) | hNaV1.6 IC50 versus WT ([1]; listed as HwTx-IV E^4R) | hNaV1.7/hNaV1.6 selectivity ratio ([2]; listed as E^4K) | hNaV1.7/hNaV1.6 selectivity ratio ([2]; listed as HwTx-IV E^4K) | hNaV1.7 IC50 versus WT [2] | hNaV1.7 IC50 versus WT ([2]; listed as HwTx-IV E^4G) | hNaV1.7 IC50 versus WT ([2]; listed as HwTx-IV E^4K) | IC50 [1] [µM] | IC50 [2] [µM] | hNaV1.7/hNaV1.6 selectivity ratio [2]
1 | CC[C@H](C)[C@H](NC(=O)[C@H](CCC(N)=O)NC(=O)[C@H](Cc1ccc(O)cc1)NC(=O)[C@H](CCCCN)NC(=O)[C@@H]1CSSC[C@@H]2NC(=O)[C@H](CCC(N)=O)NC(=O)[C@H](CC(=O)O)NC(=O)[C@H](CC(N)=O)NC(=O)[C@H](CO)NC(=O)[C@@H]3CCCN3C(=O)[C@H](CC(N)=O)NC(=O)[C@@H]3CSSC[C@H](NC(=O)[C@H](C(C)C)NC(=O)[C@H](CC(C)C)NC(=O)[C@H](CCCCN)NC(=O)[C@H](CO)NC(=O)[C@H](CO)NC(=O)[C@H](CCCCN)NC(=O)[C@H](CSSC[C@H](NC(=O)CN)C(=O)N[C@@H](CC(C)C)C(=O)N[C@@H](CCC(=O)O)C(=O)N[C@@H]([C@@H](C)CC)C(=O)N[C@@H](Cc4ccccc4)C(=O)N[C@@H](CCCCN)C(=O)N[C@@H](C)C(=O)N3)NC2=O)C(=O)N[C@@H](CO)C(=O)N[C@@H](CCCNC(=N)N)C(=O)N[C@@H](CCCCN)C(=O)N[C@@H]([C@@H](C)O)C(=O)N[C@@H](CCCNC(=N)N)C(=O)N[C@@H](Cc2c[nH]c3ccccc23)C(=O)N1)C(N)=O [HwTx-IV E^1G] | 0.28 | 0.03 | 0.09 | 0.05 | less than 2 | ~1 | 0.70 | 0.16 | 1.43 |  |  | 
2 | CC[C@H](C)[C@H](NC(=O)[C@H](CCC(N)=O)NC(=O)[C@H](Cc1ccc(O)cc1)NC(=O)[C@H](CCCCN)NC(=O)[C@@H]1CSSC[C@@H]2NC(=O)[C@H](CCC(N)=O)NC(=O)[C@H](CC(=O)O)NC(=O)[C@H](CC(N)=O)NC(=O)[C@H](CO)NC(=O)[C@@H]3CCCN3C(=O)[C@H](CC(N)=O)NC(=O)[C@@H]3CSSC[C@H](NC(=O)[C@H](C(C)C)NC(=O)[C@H](CC(C)C)NC(=O)[C@H](CCCCN)NC(=O)[C@H](CO)NC(=O)[C@H](CO)NC(=O)[C@H](CCCCN)NC(=O)[C@H](CSSC[C@H](NC(=O)[C@@H](N)CCC(=O)O)C(=O)N[C@@H](CC(C)C)C(=O)NCC(=O)N[C@@H]([C@@H](C)CC)C(=O)N[C@@H](Cc4ccccc4)C(=O)N[C@@H](CCCCN)C(=O)N[C@@H](C)C(=O)N3)NC2=O)C(=O)N[C@@H](CO)C(=O)N[C@@H](CCCNC(=N)N)C(=O)N[C@@H](CCCCN)C(=O)N[C@@H]([C@@H](C)O)C(=O)N[C@@H](CCCNC(=N)N)C(=O)N[C@@H](Cc2c[nH]c3ccccc23)C(=O)N1)C(=O)O [HwTx-IV E^4G/CterCOOH] | 0.24 |  |  |  |  |  | 1.51 |  |  | 0.0551 | 0.0149 | 
3 | CC[C@H](C)[C@H](NC(=O)[C@H](CCC(N)=O)NC(=O)[C@H](Cc1ccc(O)cc1)NC(=O)[C@H](CCCCN)NC(=O)[C@@H]1CSSC[C@@H]2NC(=O)[C@H](CCC(N)=O)NC(=O)[C@H](CC(=O)O)NC(=O)[C@H](CC(N)=O)NC(=O)[C@H](CO)NC(=O)[C@@H]3CCCN3C(=O)[C@H](CC(N)=O)NC(=O)[C@@H]3CSSC[C@H](NC(=O)[C@H](C(C)C)NC(=O)[C@H](CC(C)C)NC(=O)[C@H](CCCCN)NC(=O)[C@H](CO)NC(=O)[C@H](CO)NC(=O)[C@H](CCCCN)NC(=O)[C@H](CSSC[C@H](NC(=O)[C@@H](N)CCC(=O)O)C(=O)N[C@@H](CC(C)C)C(=O)N[C@@H](CCCCN)C(=O)N[C@@H]([C@@H](C)CC)C(=O)N[C@@H](Cc4ccccc4)C(=O)N[C@@H](CCCCN)C(=O)N[C@@H](C)C(=O)N3)NC2=O)C(=O)N[C@@H](CO)C(=O)N[C@@H](CCCNC(=N)N)C(=O)N[C@@H](CCCCN)C(=O)N[C@@H]([C@@H](C)O)C(=O)N[C@@H](CCCNC(=N)N)C(=O)N[C@@H](Cc2c[nH]c3ccccc23)C(=O)N1)C(=O)O [HwTx-IV E^4K/CterCOOH] | 0.60 |  |  |  |  |  | 1.20 |  |  | 0.136 | 0.0119 | 
4 | CC[C@H](C)[C@H](NC(=O)[C@H](CCC(N)=O)NC(=O)[C@H](Cc1c[nH]c2ccccc12)NC(=O)[C@H](CCCCN)NC(=O)[C@@H]1CSSC[C@@H]2NC(=O)[C@H](CCC(N)=O)NC(=O)[C@H](CC(=O)O)NC(=O)[C@H](CC(N)=O)NC(=O)[C@H](CO)NC(=O)[C@@H]3CCCN3C(=O)[C@H](CC(N)=O)NC(=O)[C@@H]3CSSC[C@H](NC(=O)[C@H](C(C)C)NC(=O)[C@H](CC(C)C)NC(=O)[C@H](CCCCN)NC(=O)[C@H](CO)NC(=O)[C@H](CO)NC(=O)[C@H](CCCCN)NC(=O)[C@H](CSSC[C@H](NC(=O)[C@@H](N)CCC(=O)O)C(=O)N[C@@H](CC(C)C)C(=O)N[C@@H](CCCCN)C(=O)N[C@@H]([C@@H](C)CC)C(=O)N[C@@H](Cc4ccccc4)C(=O)N[C@@H](CCCCN)C(=O)N[C@@H](C)C(=O)N3)NC2=O)C(=O)N[C@@H](CO)C(=O)N[C@@H](C)C(=O)N[C@@H](CCCCN)C(=O)N[C@@H]([C@@H](C)O)C(=O)N[C@@H](CCCNC(=N)N)C(=O)N[C@@H](Cc2c[nH]c3ccccc23)C(=O)N1)C(N)=O [HwTx-IV E^4K/R ^26A/Y^33W] | 0.38 |  |  |  |  |  | 0.09 |  |  | 0.0864 | 0.0009 | above 46
